Experimental findings from ChEMBL document CHEMBL1130844, “Synthesis and NK1 receptor antagonistic activity of (+/-)-1-acyl-3-(3,4- dichlorophenyl)-3-[2-(spiro-substituted piperidin-1'-yl)ethyl]piperidines” (Bioorg Med Chem Lett, 1998) are described below.

One assay concerns the target Substance-P receptor (Cavia porcellus, UniProt P30547). The experiment in a line: Neurokinin (NK1) receptor antagonistic activity was evaluated. It is filed as functional.
In another assay the test system is Cavia porcellus. The experiment in a line: Inhibitory activity of substance P-induced bronchoconstriction in guinea pigs upon intravenous administration was evaluated. Format: functional. To be noted: read-out: ID50 (the source's name).

Substance-P receptor, sequence (P30547 whole entry): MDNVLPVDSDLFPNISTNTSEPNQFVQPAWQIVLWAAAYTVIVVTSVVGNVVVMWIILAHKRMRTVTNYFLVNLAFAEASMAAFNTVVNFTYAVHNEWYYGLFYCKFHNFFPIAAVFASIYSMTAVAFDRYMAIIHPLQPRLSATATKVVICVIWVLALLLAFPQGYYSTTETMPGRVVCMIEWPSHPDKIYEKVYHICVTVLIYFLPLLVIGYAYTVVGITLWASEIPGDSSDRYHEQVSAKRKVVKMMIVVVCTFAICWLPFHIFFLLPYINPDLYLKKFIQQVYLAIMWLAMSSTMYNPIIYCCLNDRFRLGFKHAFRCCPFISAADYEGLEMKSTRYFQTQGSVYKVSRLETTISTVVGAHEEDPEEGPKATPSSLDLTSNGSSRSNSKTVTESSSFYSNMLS

Molecule `CC(C)Oc1cccc(CC(=O)N2CCCC(CCN3CCC4(CC3)OCc3ccccc34)(c3ccc(Cl)c(Cl)c3)C2)c1` (configuration not stated) displayed an IC50 against Substance-P receptor of 16 nM.
In turn, `CC(C)Oc1cccc(CC(=O)N2CCCC(CCN3C4CCC3CC3(C4)OCc4ccccc43)(c3ccc(Cl)c(Cl)c3)C2)c1` (configuration not stated) yielded an IC50 against Substance-P receptor of 105 nM.
At Substance-P receptor, `CC(C)Oc1cccc(CC(=O)N2CCCC(CCN3CCC4(CC3)NC(=O)Cc3ccccc34)(c3ccc(Cl)c(Cl)c3)C2)c1` (configuration not stated) showed an IC50 of 54 nM.
Same read-out and setting: to `CC(C)Oc1cccc(CC(=O)N2CCCC(CC[N+]3(Cc4ccccc4)CCC4(CC3)NCCc3ccccc34)(c3ccc(Cl)c(Cl)c3)C2)c1` (configuration not stated) belongs 16 nM.
With `CC(C)Oc1cccc(CC(=O)N2CCCC(CC[N+]3(C)CCC4(CC3)NCCc3ccccc34)(c3ccc(Cl)c(Cl)c3)C2)c1.[I-]` (configuration not stated), in the assay with Cavia porcellus, the ED50 was 0.049 mg/kg. Also, the half-maximal inhibitory concentration (IC50) at Substance-P receptor was 2 nM.
Consider `CC(C)Oc1cccc(CC(=O)N2CCCC(CC[N+]3(C)CCC4(CC3)c3ccccc3C[S+]4[O-])(c3ccc(Cl)c(Cl)c3)C2)c1` (configuration not stated), for which, on Substance-P receptor, the half-inhibitory concentration (IC50) came to 6.3 nM.
Take `CC(C)Oc1cccc(CC(=O)N2CCCC(CCN3CCC4(CC3)c3ccccc3C[S+]4[O-])(c3ccc(Cl)c(Cl)c3)C2)c1` (configuration not stated): the concentration for half-maximal inhibition (IC50) against Substance-P receptor stood at 18 nM.
At Substance-P receptor, `CC(C)Oc1cccc(CC(=O)N2CCCC(CCN3CCC4(CC3)NCCc3ccccc34)(c3ccc(Cl)c(Cl)c3)C2)c1` (configuration not stated) gave an IC50 of 31 nM.
The molecule `CN(CC(CCN1CCC2(CC1)OCc1ccccc12)c1ccc(Cl)c(Cl)c1)C(=O)c1ccccc1` (configuration not stated) registered a concentration for half-maximal inhibition (IC50) against Substance-P receptor of 710 nM.
`CN(CC(CCN1CCC2(CC1)NCCc1ccccc12)c1ccc(Cl)c(Cl)c1)C(=O)c1ccccc1` (configuration not stated) came in with a concentration for half-maximal inhibition (IC50) against Substance-P receptor of 58 nM.
`CC[N+]1(CCC2(c3ccc(Cl)c(Cl)c3)CCCN(C(=O)Cc3cccc(OC(C)C)c3)C2)CCC2(CC1)NCCc1ccccc12` (configuration not stated) had an IC50 against Substance-P receptor of 4.8 nM.
For `CC(C)Oc1cccc(CC(=O)N2CCCC(CC[N+]34CCC(c5ccccc5)(CC3)CC4)(c3ccc(Cl)c(Cl)c3)C2)c1.[Cl-]` (racemic), the ED50 in the assay with Cavia porcellus stood at 0.019 mg/kg. The molecule further gave an IC50 on Substance-P receptor of 0.31 nM.
With `CC(C)Oc1cccc(CC(=O)N2CCCC(CC[N+]3(C)CCC4(CC3)NC(=O)Cc3ccccc34)(c3ccc(Cl)c(Cl)c3)C2)c1.[I-]` (stereo in doubt; 5ba), in the assay on Cavia porcellus, the ED50 is 0.024 mg/kg. The 50% inhibitory concentration (IC50) on Substance-P receptor is 1.9 nM.
`CC(C)Oc1cccc(CC(=O)N2CCCC(CC[N+]3(C)CCC4(CC3)NC(=O)Cc3ccccc34)(c3ccc(Cl)c(Cl)c3)C2)c1` (stereo in doubt; 5bb) registered an IC50 on Substance-P receptor of 35 nM.
